Key:
[1] = Cytotoxicity against human MT4 cells assessed as cell viability after 96 hrs by MTT assay; assay type: cell-based
[2] = test system: Yellow fever virus; test: Antiviral activity against YFV infected in BHK-21 cells assessed as inhibition of virus-induced cytopathogenicity after 3 to 4 days by MTT assay; assay type: functional, organism-based
[3] = test system: Bovine viral diarrhea virus 1; test: Antiviral activity against BVDV infected in MDBK cells assessed as inhibition of virus-induced cytopathogenicity after 3 to 4 days by MTT assay; assay type: functional, organism-based; conditions: Bovine viral diarrhea virus isolates and strains
[4] = test system: Vesicular stomatitis virus; test: Antiviral activity against VSV; assay type: functional, organism-based
[5] = test system: Poliovirus 1; test: Antiviral activity against Human poliovirus 1 Sabin infected in african green monkey Vero76 cells assessed as inhibition of virus-induced cytopathogenicity by plaque reduction assay; assay type: functional, organism-based; conditions: Enterovirus C, Vero 76
[6] = test system: Coxsackievirus B5; test: Antiviral activity against human CVB5 infected in african green monkey Vero76 cells assessed as inhibition of virus-induced cytopathogenicity after 3 days by plaque reduction assay; assay type: functional, organism-based; conditions: Enterovirus B, Vero 76, 72 h
[7] = test system: Human immunodeficiency virus 1; test: Antiviral activity against HIV-1 infected in MT4 cells assessed as inhibition of virus-induced cytopathogenicity after 4 days by MTT assay; assay type: functional, organism-based; conditions: Human immunodeficiency virus 1, MT4, 96 h
[8] = Cytotoxicity against MDBK cells assessed as cell viability after 48 to 96 hrs by MTT assay; assay type: cell-based, Bos taurus; conditions: cattle
[9] = Cytotoxicity against BHK cells assessed as cell viability after 48 to 96 hrs by MTT assay; assay type: cell-based, Mesocricetus auratus; conditions: hamster
[10] = test system: Vaccinia virus; test: Antiviral activity against Vaccinia virus; assay type: functional, organism-based; conditions: Orthopoxvirus vaccinia
[11] = test system: Human orthopneumovirus; test: Antiviral activity against human RSV infected in african green monkey Vero76 cells assessed as inhibition of virus-induced cytopathogenicity after 5 days by plaque reduction assay; assay type: functional, organism-based; conditions: human respiratory syncytial virus, Vero 76, 120 h
[12] = test system: Mammalian orthoreovirus 1; test: Antiviral activity against Reo-1 virus infected in BHK-21 cells assessed as inhibition of virus-induced cytopathogenicity after 3 to 4 days by MTT assay; assay type: functional, cell-based; conditions: Mammalian orthoreovirus 1, BHK-21
[13] = Cytotoxicity against african green monkey Vero 76 cells assessed as cell viability after 48 to 96 hrs by crystal violet staining method; assay type: cell-based; conditions: chlorocebus sabaeus
[14] = test system: Human alphaherpesvirus 1; test: Antiviral activity against HSV1; assay type: functional, organism-based
[15] = Selectivity index, ratio of CC50 for african green monkey Vero76 cells to EC50 for human RSV; parameters: species or system human respiratory syncytial virus, Vero 76
[16] = Selectivity index, ratio of CC50 for MDBK cells to EC50 for BVDV; parameters: species or system Bovine viral diarrhea virus 1

| Compound | CC50 at 96 h [1] [µM] | EC50 [2] [µM] | EC50 [3] [µM] | EC50 [4] [µM] | EC50 [5] [µM] | EC50 [6] [µM] | EC50 [7] [µM] | CC50 [8] [µM] | CC50 [9] [µM] | EC50 [10] [µM] | EC50 [11] [µM] | EC50 [12] [µM] | CC50 [13] [µM] | EC50 [14] [µM] | Ratio CC50/EC50 [15] | Ratio CC50/EC50 [16] |
| --- | --- | --- | --- | --- | --- | --- | --- | --- | --- | --- | --- | --- | --- | --- | --- | --- |
| O=C(O)COc1ccc(-n2nc3ccc(Cl)cc3[n+]2[O-])cc1 | > 100 | > 100 | > 100 | > 100 | > 100 | > 100 | > 100 | > 100 | > 100 | > 100 | > 100 | > 100 | 100 | – | – | – |
| Clc1cc2nn(C3CCCCO3)nc2cc1Cl (centres undefined) | > 100 | > 100 | > 100 | > 100 | 60 | – | > 100 | > 100 | > 100 | – | – | > 100 | ≥ 100 | > 100 | – | – |
| COc1ccc(-n2nc3cc(Cl)c(Cl)cc3n2)cc1 | > 100 | > 100 | > 100 | > 100 | > 100 | > 100 | > 100 | > 100 | > 100 | > 100 | > 100 | > 100 | > 100 | – | – | – |
| CC(C)(Oc1ccc(-n2nc3ccccc3n2)cc1)C(=O)O | > 100 | > 100 | > 100 | > 100 | > 100 | > 100 | > 100 | > 100 | > 100 | > 100 | 80 | – | ≥ 100 | – | 1.25 | – |
| Cc1ccc2nn(-c3ccc(OC(C)(C)C(=O)O)cc3)nc2c1 | > 100 | > 100 | 90 | > 100 | > 100 | > 100 | > 100 | > 100 | > 100 | > 100 | 22 | – | 95 | – | 4.32 | >1.11 |
| FC(F)(F)c1ccc2nn(Cc3ccc(Cl)cc3)nc2c1 | > 100 | > 100 | > 100 | > 100 | > 100 | > 100 | > 100 | > 100 | > 100 | > 100 | > 100 | > 100 | > 100 | > 100 | – | – |
| FC(F)(F)c1ccc2nn(Cc3ccccc3)nc2c1 | > 100 | > 100 | > 100 | > 100 | > 100 | > 100 | > 100 | > 100 | > 100 | > 100 | > 100 | > 100 | > 100 | > 100 | – | – |
| Nc1nc2c(ncn2COCCO)c(=O)[nH]1 [ACYCLOVIR] | > 100 | > 100 | > 100 | > 100 | > 100 | > 100 | – | > 100 | > 100 | > 100 | > 100 | – | > 100 | 1.2 | – | – |
| COc1ccc(Cn2nc3ccc(C(F)(F)F)cc3n2)cc1 | > 100 | > 100 | > 100 | > 100 | > 100 | > 100 | > 100 | > 100 | > 100 | > 100 | > 100 | > 100 | > 100 | > 100 | – | – |
| COc1ccc(Cn2nnc3cc(Cl)c(Cl)cc32)cc1 | > 100 | > 100 | > 100 | > 100 | > 100 | > 100 | > 100 | > 100 | > 100 | > 100 | > 100 | > 100 | > 100 | > 100 | – | – |
| [O-][n+]1c2ccccc2nn1-c1ccc(O)cc1 | > 100 | > 100 | > 100 | > 100 | > 100 | > 100 | > 100 | > 100 | > 100 | > 100 | > 100 | > 100 | > 100 | – | – | – |
| Cc1ccc(C)c(OCCCC(C)(C)C(=O)O)c1 [GEMFIBROZIL] | > 100 | > 100 | 90 | – | > 100 | > 100 | – | > 100 | > 100 | – | > 100 | – | > 100 | – | – | >1.11 |
| COc1c(C)c2c(c(O)c1C/C=C(\C)CCC(=O)O)C(=O)OC2 [MYCOPHENOLIC ACID] | – | > 100 | > 100 | – | > 100 | > 100 | – | – | > 100 | 2 | 0.6 | > 100 | – | > 100 | 33.3 | – |
| COc1ccc2nn(-c3ccc(OC(C)(C)C(=O)O)cc3)nc2c1 | > 100 | > 100 | > 100 | > 100 | > 100 | > 100 | > 100 | ≥ 100 | > 100 | > 100 | 20 | – | 90 | – | 4.5 | – |
| Clc1cc2nn(Cc3ccccc3)nc2cc1Cl | > 100 | > 100 | > 100 | > 100 | > 100 | > 100 | > 100 | > 100 | > 100 | > 100 | > 100 | > 100 | > 100 | > 100 | – | – |
| CC(CC(=O)O)n1nc2c(Cl)c(Cl)c(Cl)c(Cl)c2n1 (centres undefined) | > 100 | > 100 | 49 | > 100 | – | 25 | > 100 | 70 | 33 | > 100 | 8 | – | 25 | – | 3.12 | 1.43 |
| CC(C)(Oc1ccc(-n2nc3ccc(Cl)cc3n2)cc1)C(=O)O | > 100 | > 100 | > 100 | > 100 | > 100 | > 100 | > 100 | ≥ 100 | 75 | > 100 | 25 | – | 70 | – | 2.8 | – |
| COc1ccc(Cn2nc3cc(Cl)c(Cl)cc3n2)cc1 | > 100 | > 100 | > 100 | > 100 | > 100 | > 100 | > 100 | > 100 | > 100 | > 100 | > 100 | > 100 | > 100 | > 100 | – | – |
| NC(=O)c1ncn([C@@H]2O[C@H](CO)[C@@H](O)[C@H]2O)n1 [RIBAVIRIN] | – | > 100 | – | > 100 | > 100 | > 100 | – | > 100 | > 100 | > 100 | 7 | > 100 | > 100 | > 100 | >14.3 | – |
| O=C(O)COc1ccc(-n2nc3ccccc3[n+]2[O-])cc1 | > 100 | > 100 | > 100 | > 100 | > 100 | > 100 | > 100 | > 100 | > 100 | > 100 | > 100 | > 100 | > 100 | – | – | – |
| Clc1ccc(Cn2nc3cc(Cl)c(Cl)cc3n2)cc1 | > 100 | > 100 | > 100 | > 100 | > 100 | > 100 | > 100 | > 100 | > 100 | > 100 | > 100 | > 100 | > 100 | > 100 | – | – |
| Clc1c(Cl)c(Cl)c2nn(C3CCCO3)nc2c1Cl (centres undefined) | > 100 | > 100 | 12 | > 100 | > 100 | – | > 100 | ≥ 100 | 30 | – | – | > 100 | 12 | > 100 | – | 8.33 |
| Cc1cc2nn(C3CCCO3)nc2cc1C (centres undefined) | > 100 | > 100 | > 100 | > 100 | > 100 | – | > 100 | > 100 | > 100 | – | – | > 100 | > 100 | > 100 | – | – |

— ChEMBL document CHEMBL3734667 (Bioorg Med Chem, 2015)
